Assay results published in patent publication US10219516B2, “Molecules having pesticidal utility, and intermediates, compositions, and processes, related thereto” (priority 2015, dated 2019).

Experiments:
[1] = test system: Cabbage Looper (Trichoplusia ni, TRIPNI); assay: Bioassay on Cabbage Looper (CL), 128-well diet tray assay; assay type: in vivo; conditions: Trichoplusia ni; Species CL (Cabbage Looper); read-out: CL (Biological Results, rating)
Description: (§1) Certain molecules disclosed in this document were tested against BAW and CL using procedures described in the following examples. In the reporting of the results, the “BAW & CL Rating Table” was used (See Table Section).
Bioassays on CL were conducted using a 128-well diet tray assay. one to five second instar CL larvae were placed in each well (3 mL) of the diet tray that had been previously filled with 1 mL of artificial diet to which 50 μg/cm^2 of the test molecule (dissolved in 50 μL of 90:10 acetone-water mixture) had been applied (to each of eight wells) and then allowed to dry. Trays were covered with a clear self-adhesive cover, vented to allow gas exchange, and held at 25° C., 14:10 light-dark for five to seven days. Percent mortality was recorded for the larvae in each well; activity in the eight wells was then averaged. The results are indicated in the table entitled “Table ABC: Biological Results” (See Table Section).

[2] = test system: Beet Armyworm (Spodoptera exigua, LAPHEG); assay: Bioassay on Beet Armyworm (BAW), 128-well diet tray assay; assay type: in vivo; conditions: Species BAW (Beet Armyworm), read-out: BAW (Biological Results, rating)
Description: as §1
Bioassays on BAW were conducted using a 128-well diet tray assay. One to five second instar BAW larvae were placed in each well (3 mL) of the diet tray that had been previously filled with approximately 1.5 mL of artificial diet to which 50 μg/cm^2 of the test molecule (dissolved in 50 μL of 90:10 acetone-water mixture) had been applied (to each of eight wells) and then allowed to dry. Trays were covered with a clear self-adhesive cover, vented to allow gas exchange, and held at 25° C., 14:10 light-dark for five to seven days. Percent mortality was recorded for the larvae in each well; activity in the eight wells was then averaged. The results are indicated in the table entitled “Table ABC: Biological Results” (See Table Section).

`C=CCN(C(=O)c1cc(NC(=O)[C@H]2[C@H](c3cc(Cl)cc(Cl)c3)C2(Cl)Cl)ccc1Cl)c1ccc(F)cc1` (relative stereo) [F102, trans-N-Allyl-2-chloro-5-(2,2-dichloro-3-(3,5-dichlorophenyl)cyclopropane-1-carboxamido)-N-(4-fluorophenyl)benzamide] was tested, and the pest or weed control at 50 µg/cm2 [1] was 50 to 100% and the pest or weed control at 50 µg/cm2 [2] was 50 to 100%.
`N#Cc1ccc(NC(=O)c2cc(NC(=O)[C@H]3[C@H](c4ccc(Cl)c(Cl)c4)C3(Cl)Cl)ccc2Cl)c(F)c1` (relative stereo) [F103, trans-2-chloro-N-(4-cyano-2-fluorophenyl)-5-(2,2-dichloro-3-(3,4-dichlorophenyl)cyclopropane-1-carboxamido)benzamide] showed a pest or weed control at 50 µg/cm2 [1] of 50 to 100% and a pest or weed control at 50 µg/cm2 [2] of 50 to 100%.
For `N#Cc1ccc(NC(=O)c2cc(NC(=O)[C@H]3[C@H](c4cc(Cl)c(Cl)c(Cl)c4)C3(Cl)Cl)ccc2Cl)c(F)c1` (relative stereo) [F104, trans-2-Chloro-N-(4-cyano-2-fluorophenyl)-5-(2,2-dichloro-3-(3,4,5-trichlorophenyl)cyclopropane-1-carboxamido)benzamide], the pest or weed control at 50 µg/cm2 [1] was 50 to 100% and the pest or weed control at 50 µg/cm2 [2] was 50 to 100%.
Molecule `CN(C(=O)c1cc(NC(=O)[C@H]2[C@H](c3cc(Cl)c(Cl)c(Cl)c3)C2(Cl)Cl)ccc1F)c1ccc(C#N)cc1F` (relative stereo) [F105, trans-N-(4-Cyano-2-fluorophenyl)-5-(2,2-dichloro-3-(3,4,5-trichlorophenyl)cyclopropane-1-carboxamido)-2-fluoro-N-methylbenzamide] has a pest or weed control at 50 µg/cm2 [1] of 50 to 100% and a pest or weed control at 50 µg/cm2 [2] of 50 to 100%.
With `CN(C(=O)c1cc(NC(=O)[C@H]2[C@H](c3cc(Cl)cc(Cl)c3)C2(Cl)Cl)ccc1Cl)c1ccc(C#N)cc1F` (relative stereo) [F106, trans-2-Chloro-N-(4-cyano-2-fluorophenyl)-5-(2,2-dichloro-3-(3,5-dichlorophenyl)cyclopropane-1-carboxamido)-N-methylbenzamide] the pest or weed control at 50 µg/cm2 [1] was 50 to 100% and the pest or weed control at 50 µg/cm2 [2] was 50 to 100%.
Molecule `CN(C(=O)c1cc(NC(=O)[C@H]2[C@H](c3ccc(Cl)c(Cl)c3)C2(Cl)Cl)ccc1Cl)c1ccc(C#N)cc1F` (relative stereo) [F107, trans-2-Chloro-N-(4-cyano-2-fluorophenyl)-5-(2,2-dichloro-3-(3,4-dichlorophenyl)cyclopropane-1-carboxamido)-N-methylbenzamide] has a pest or weed control at 50 µg/cm2 [1] of 50 to 100% and a pest or weed control at 50 µg/cm2 [2] of 50 to 100%.
`CN(C(=O)c1cc(NC(=O)[C@H]2[C@H](c3cc(Cl)c(Cl)c(Cl)c3)C2(Cl)Cl)ccc1Cl)c1ccc(C#N)cc1F` (relative stereo) [F108, trans-2-Chloro-N-(4-cyano-2-fluorophenyl)-5-(2,2-dichloro-3-(3,4,5-trichlorophenyl)cyclopropane-1-carboxamido)-N-methylbenzamide] gave a pest or weed control at 50 µg/cm2 [1] of 50 to 100% and a pest or weed control at 50 µg/cm2 [2] of 50 to 100%.
With `O=C(Nc1ccc(F)cc1)c1cc(NC(=O)[C@H]2[C@H](c3ccccc3)C2(Cl)Cl)ccc1Cl` (relative stereo) [F109, trans-2-Chloro-5-(2,2-dichloro-3-phenylcyclopropane-1-carboxamido)-N-(4-fluorophenyl)benzamide] the pest or weed control at 50 µg/cm2 [1] was 50 to 100% and the pest or weed control at 50 µg/cm2 [2] was 50 to 100%.
`CN(C(=O)c1cc(NC(=O)[C@H]2[C@H](c3ccccc3)C2(Cl)Cl)ccc1Cl)c1ccc(F)cc1` (relative stereo) [F110, trans-2-Chloro-5-(2,2-dichloro-3-phenylcyclopropane-1-carboxamido)-N-(4-fluorophenyl)-N-methylbenzamide] was tested, and the pest or weed control at 50 µg/cm2 [1] was 50 to 100% and the pest or weed control at 50 µg/cm2 [2] was 50 to 100%.
Work on `O=C(Nc1c(F)cccc1F)c1cc(NC(=O)[C@H]2[C@H](c3ccccc3)C2(Cl)Cl)ccc1Cl` (relative stereo) [F111, trans-2-Chloro-5-(2,2-dichloro-3-phenylcyclopropane-1-carboxamido)-N-(2,6-difluorophenyl)benzamide] yielded a pest or weed control at 50 µg/cm2 [1] of 50 to 100% and a pest or weed control at 50 µg/cm2 [2] of 50 to 100%.
Work on `CN(C(=S)c1cc(NC(=O)[C@H]2[C@H](c3cc(Cl)cc(Cl)c3)C2(Cl)Cl)ccc1Cl)c1ccc(F)cc1` (relative stereo) [F112, trans-2,2-Dichloro-N-(4-chloro-3-((4-fluorophenyl)(methyl)carbamothioyl)phenyl)-3-(3,5-dichlorophenyl)cyclopropane-1-carboxamide] yielded a pest or weed control at 50 µg/cm2 [1] of 50 to 100% and a pest or weed control at 50 µg/cm2 [2] of 50 to 100%.
Molecule `O=C(Nc1ccc(Cl)c(C(=S)Nc2ccc(F)cc2)c1)[C@H]1[C@H](c2cc(Cl)cc(Cl)c2)C1(Cl)Cl` (relative stereo) [F113, trans-2,2-Dichloro-N-(4-chloro-3-((4-fluorophenyl)carbamothioyl)phenyl)-3-(3,5-dichlorophenyl)cyclopropane-1-carboxamide] has a pest or weed control at 50 µg/cm2 [1] of 50 to 100% and a pest or weed control at 50 µg/cm2 [2] of 50 to 100%.
`CSc1ccc(NC(=O)[C@H]2[C@H](c3cc(Cl)cc(Cl)c3)C2(Cl)Cl)cc1C(=O)Nc1ccc(F)cc1` (relative stereo) [F115, trans-5-(2,2-Dichloro-3-(3,5-dichlorophenyl)cyclopropane-1-carboxamido)-N-(4-fluorophenyl)-2-(methylthio)benzamide] was tested, and the pest or weed control at 50 µg/cm2 [1] was 50 to 100% and the pest or weed control at 50 µg/cm2 [2] was 50 to 100%.
For `Cc1c(Cl)cc([C@H]2[C@H](C(=O)Nc3ccc(Cl)c(C(=O)Nc4ccc(F)cc4)c3)C2(Cl)Cl)cc1Cl` (relative stereo) [F119, trans-2-Chloro-5-(2,2-dichloro-3-(3,5-dichloro-4-methylphenyl)cyclopropane-1-carboxamido)-N-(4-fluorophenyl)benzamide], the pest or weed control at 50 µg/cm2 [1] was 50 to 100% and the pest or weed control at 50 µg/cm2 [2] was 50 to 100%.
Molecule `Cc1c(Cl)cc([C@H]2[C@H](C(=O)Nc3ccc(Cl)c(C(=O)N(C)c4ccc(F)cc4)c3)C2(Cl)Cl)cc1Cl` (relative stereo) [F120, trans-2-Chloro-5-(2,2-dichloro-3-(3,5-dichloro-4-methylphenyl)cyclopropane-1-carboxamido)-N-(4-fluorophenyl)-N-methylbenzamide] has a pest or weed control at 50 µg/cm2 [1] of 50 to 100% and a pest or weed control at 50 µg/cm2 [2] of 50 to 100%.
Work on `Cc1c(Cl)cc([C@H]2[C@H](C(=O)Nc3ccc(Cl)c(C(=O)Nc4c(F)cccc4F)c3)C2(Cl)Cl)cc1Cl` (relative stereo) [F121, trans-2-Chloro-5-(2,2-dichloro-3-(3,5-dichloro-4-methylphenyl)cyclopropane-1-carboxamido)-N-(2,6-difluorophenyl)benzamide] yielded a pest or weed control at 50 µg/cm2 [1] of 50 to 100% and a pest or weed control at 50 µg/cm2 [2] of 50 to 100%.
`Cc1cc([C@H]2[C@H](C(=O)Nc3ccc(Cl)c(C(=O)Nc4c(F)cccc4F)c3)C2(Cl)Cl)cc(Cl)c1Cl` (relative stereo) [F125, trans-2-Chloro-5-(2,2-dichloro-3-(3,4-dichloro-5-methylphenyl)cyclopropane-1-carboxamido)-N-(2,6-difluorophenyl)benzamide] was tested, and the pest or weed control at 50 µg/cm2 [1] was 50 to 100% and the pest or weed control at 50 µg/cm2 [2] was 50 to 100%.
For `O=C(Nc1ccc(F)cc1)c1cccc(NC(=O)[C@H]2[C@H](c3cc(Cl)cc(Cl)c3)C2(Cl)Cl)n1` (relative stereo) [F133, trans-6-(2,2-Dichloro-3-(3,5-dichlorophenyl)cyclopropane-1-carboxamido)-N-(4-fluorophenyl)picolinamide], the pest or weed control at 50 µg/cm2 [1] was 50 to 100% and the pest or weed control at 50 µg/cm2 [2] was 50 to 100%.
